From patent publication EP4559919A1, “TRICYCLIC-CONTAINING MACROCYCLIC COMPOUND AND USE THEREOF” (Medshine Discovery Inc., priority 2022, dated 2024)

Tests used:
ALK(G1202R) = target: T1, ALK(G1202R) (Homo sapiens, UniProt Q9UM73, G1202R); assay: In vitro kinase inhibitory activity assay, Experimental method 1 (ADP-Glo); assay type: biochemical; details: final ATP 50 µM, read-out: Kinase half maximal inhibitory concentration IC50 ALK^G1202R
T1 construct: purchased Carna
Method: (§1) The kinase inhibitory activity assays of the compounds against ALK, ALK^L1196M, ALK^G1202R, ALK^G1202R/L1196M, ROS1, and TRKB were conducted at Wuhan Heyan Biotechnology Co., Ltd. or Hefei PreceDo Biotechnology Co., Ltd.
(§2) Experimental materials: ALK Active, ALK(L1196M) Active, ALK(G1202R) Active, and ALK(G1202R/L1196M) Active were purchased from Carna; SRC Substrate was purchased from SignalChem; IGF1R tide was purchased from SignalChem; ADP-Glo Kinase Assay was purchased from Promega; Kinase assay buffer III was purchased from SignalChem; and Nivo multimode plate reader (PerkinElmer).
(§3) Each concentration of the compounds was further diluted 20-fold using 1X kinase buffer to prepare compound working solutions containing 5% DMSO. 1 µL of each concentration gradient working solution was added to a microplate, with duplicate wells set for each concentration. 2 µL of ALK enzyme (15 ng per well) and 2 µL of a mixture of substrate and ATP (25 µM ATP, 0.5 µg/µL SRC Substrate) were added to the microplate. […] The reaction system was placed at 25°C for 1 hour. After the reaction, 5 µL of ADP-Glo reagent was added to each well and reacted at 25°C for another 40 minutes. After the reaction, 10 µL of kinase detection reagent was added to each well and reacted at 25°C for 30 minutes. Chemiluminescence was then measured using the PerkinElmer Nivo multimode plate reader with an integration time of 0.5 seconds.
ALK (G1202R) kinase inhibition assay method: The preparation method for the working solution of the test compound was the same as for the ALK kinase. […] The subsequent steps were the same as for ALK kinase.
(§4) The IC50 value could then be derived by performing a curve fit using a four-parameter logistic model (obtained using the "log(inhibitor) vs. response -- Variable slope" mode in GraphPad Prism).

ROS1 = ROS1 (Homo sapiens, UniProt P08922); assay: as above; assay type: biochemical; details: read-out: Kinase half maximal inhibitory concentration IC50 ROS1
Chain of ROS1 (P08922 28-2347): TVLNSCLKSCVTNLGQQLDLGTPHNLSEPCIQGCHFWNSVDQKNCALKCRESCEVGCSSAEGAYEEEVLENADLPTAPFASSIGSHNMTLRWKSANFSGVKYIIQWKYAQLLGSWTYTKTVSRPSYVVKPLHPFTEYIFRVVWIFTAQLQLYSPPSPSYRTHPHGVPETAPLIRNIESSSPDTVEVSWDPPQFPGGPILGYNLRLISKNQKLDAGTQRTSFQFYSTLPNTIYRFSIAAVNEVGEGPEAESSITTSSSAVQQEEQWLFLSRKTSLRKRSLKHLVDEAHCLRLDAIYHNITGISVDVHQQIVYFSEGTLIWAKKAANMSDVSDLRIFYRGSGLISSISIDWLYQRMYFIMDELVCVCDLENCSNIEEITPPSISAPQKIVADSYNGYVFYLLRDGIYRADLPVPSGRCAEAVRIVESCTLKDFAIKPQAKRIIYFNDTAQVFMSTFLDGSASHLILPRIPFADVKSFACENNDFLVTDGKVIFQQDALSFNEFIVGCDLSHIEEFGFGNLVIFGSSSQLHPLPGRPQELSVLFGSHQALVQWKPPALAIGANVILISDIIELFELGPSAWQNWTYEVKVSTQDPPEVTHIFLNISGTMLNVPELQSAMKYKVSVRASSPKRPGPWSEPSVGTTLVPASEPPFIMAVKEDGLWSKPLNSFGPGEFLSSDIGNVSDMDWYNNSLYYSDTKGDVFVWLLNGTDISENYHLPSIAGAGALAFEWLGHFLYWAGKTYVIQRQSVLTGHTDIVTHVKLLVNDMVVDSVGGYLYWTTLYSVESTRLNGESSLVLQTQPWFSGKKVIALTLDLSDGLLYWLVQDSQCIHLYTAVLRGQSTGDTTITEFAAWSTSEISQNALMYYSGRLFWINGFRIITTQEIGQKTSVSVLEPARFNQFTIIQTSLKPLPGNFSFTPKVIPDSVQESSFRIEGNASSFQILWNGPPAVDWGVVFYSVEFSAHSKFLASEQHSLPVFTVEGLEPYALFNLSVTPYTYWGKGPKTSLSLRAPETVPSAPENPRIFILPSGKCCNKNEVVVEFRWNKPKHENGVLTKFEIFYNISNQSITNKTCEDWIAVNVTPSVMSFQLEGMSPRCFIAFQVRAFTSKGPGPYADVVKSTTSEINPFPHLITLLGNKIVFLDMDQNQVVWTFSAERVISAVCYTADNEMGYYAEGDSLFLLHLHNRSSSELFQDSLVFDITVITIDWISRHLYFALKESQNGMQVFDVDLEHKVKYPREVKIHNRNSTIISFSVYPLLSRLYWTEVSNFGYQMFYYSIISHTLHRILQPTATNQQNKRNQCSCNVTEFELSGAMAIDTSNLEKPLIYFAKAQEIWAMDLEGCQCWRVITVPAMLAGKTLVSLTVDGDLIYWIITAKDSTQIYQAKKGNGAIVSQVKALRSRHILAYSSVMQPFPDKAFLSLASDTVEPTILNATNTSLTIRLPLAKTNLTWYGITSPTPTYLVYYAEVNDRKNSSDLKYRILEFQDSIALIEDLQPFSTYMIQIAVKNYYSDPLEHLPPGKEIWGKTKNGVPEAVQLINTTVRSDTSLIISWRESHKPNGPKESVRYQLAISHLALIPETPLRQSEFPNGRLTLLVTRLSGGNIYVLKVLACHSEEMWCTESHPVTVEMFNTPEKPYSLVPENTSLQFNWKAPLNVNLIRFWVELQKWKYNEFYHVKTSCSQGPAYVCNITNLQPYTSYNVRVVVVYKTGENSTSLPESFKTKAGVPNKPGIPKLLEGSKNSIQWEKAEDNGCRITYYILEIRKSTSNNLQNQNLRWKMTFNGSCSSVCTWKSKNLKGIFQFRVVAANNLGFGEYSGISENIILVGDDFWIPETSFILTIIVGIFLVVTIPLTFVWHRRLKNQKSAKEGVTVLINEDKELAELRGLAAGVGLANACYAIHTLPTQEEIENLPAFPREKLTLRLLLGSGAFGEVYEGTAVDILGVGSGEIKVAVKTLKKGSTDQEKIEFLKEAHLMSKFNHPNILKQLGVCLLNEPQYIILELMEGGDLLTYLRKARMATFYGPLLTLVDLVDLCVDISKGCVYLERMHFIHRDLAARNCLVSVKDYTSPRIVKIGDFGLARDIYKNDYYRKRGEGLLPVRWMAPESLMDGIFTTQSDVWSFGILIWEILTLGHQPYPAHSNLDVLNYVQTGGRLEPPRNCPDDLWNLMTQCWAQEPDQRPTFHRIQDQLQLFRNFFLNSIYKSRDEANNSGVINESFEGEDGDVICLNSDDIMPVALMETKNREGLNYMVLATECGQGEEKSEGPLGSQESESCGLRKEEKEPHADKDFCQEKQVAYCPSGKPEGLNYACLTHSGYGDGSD
Method: as §1, §2
as §3, with “After the reaction, 10 µL of kinase detection reagent was added to each well and reacted at 25°C for 30 minutes.” left out, “seconds. […]” for “seconds.”

ALK = target: T2, ALK (Homo sapiens, UniProt Q9UM73); assay: as above; assay type: biochemical; details: final ATP 10 µM, read-out: Kinase half maximal inhibitory concentration IC50 ALK
T2 construct: purchased Carna
T2 sequence (Q9UM73 19-1620): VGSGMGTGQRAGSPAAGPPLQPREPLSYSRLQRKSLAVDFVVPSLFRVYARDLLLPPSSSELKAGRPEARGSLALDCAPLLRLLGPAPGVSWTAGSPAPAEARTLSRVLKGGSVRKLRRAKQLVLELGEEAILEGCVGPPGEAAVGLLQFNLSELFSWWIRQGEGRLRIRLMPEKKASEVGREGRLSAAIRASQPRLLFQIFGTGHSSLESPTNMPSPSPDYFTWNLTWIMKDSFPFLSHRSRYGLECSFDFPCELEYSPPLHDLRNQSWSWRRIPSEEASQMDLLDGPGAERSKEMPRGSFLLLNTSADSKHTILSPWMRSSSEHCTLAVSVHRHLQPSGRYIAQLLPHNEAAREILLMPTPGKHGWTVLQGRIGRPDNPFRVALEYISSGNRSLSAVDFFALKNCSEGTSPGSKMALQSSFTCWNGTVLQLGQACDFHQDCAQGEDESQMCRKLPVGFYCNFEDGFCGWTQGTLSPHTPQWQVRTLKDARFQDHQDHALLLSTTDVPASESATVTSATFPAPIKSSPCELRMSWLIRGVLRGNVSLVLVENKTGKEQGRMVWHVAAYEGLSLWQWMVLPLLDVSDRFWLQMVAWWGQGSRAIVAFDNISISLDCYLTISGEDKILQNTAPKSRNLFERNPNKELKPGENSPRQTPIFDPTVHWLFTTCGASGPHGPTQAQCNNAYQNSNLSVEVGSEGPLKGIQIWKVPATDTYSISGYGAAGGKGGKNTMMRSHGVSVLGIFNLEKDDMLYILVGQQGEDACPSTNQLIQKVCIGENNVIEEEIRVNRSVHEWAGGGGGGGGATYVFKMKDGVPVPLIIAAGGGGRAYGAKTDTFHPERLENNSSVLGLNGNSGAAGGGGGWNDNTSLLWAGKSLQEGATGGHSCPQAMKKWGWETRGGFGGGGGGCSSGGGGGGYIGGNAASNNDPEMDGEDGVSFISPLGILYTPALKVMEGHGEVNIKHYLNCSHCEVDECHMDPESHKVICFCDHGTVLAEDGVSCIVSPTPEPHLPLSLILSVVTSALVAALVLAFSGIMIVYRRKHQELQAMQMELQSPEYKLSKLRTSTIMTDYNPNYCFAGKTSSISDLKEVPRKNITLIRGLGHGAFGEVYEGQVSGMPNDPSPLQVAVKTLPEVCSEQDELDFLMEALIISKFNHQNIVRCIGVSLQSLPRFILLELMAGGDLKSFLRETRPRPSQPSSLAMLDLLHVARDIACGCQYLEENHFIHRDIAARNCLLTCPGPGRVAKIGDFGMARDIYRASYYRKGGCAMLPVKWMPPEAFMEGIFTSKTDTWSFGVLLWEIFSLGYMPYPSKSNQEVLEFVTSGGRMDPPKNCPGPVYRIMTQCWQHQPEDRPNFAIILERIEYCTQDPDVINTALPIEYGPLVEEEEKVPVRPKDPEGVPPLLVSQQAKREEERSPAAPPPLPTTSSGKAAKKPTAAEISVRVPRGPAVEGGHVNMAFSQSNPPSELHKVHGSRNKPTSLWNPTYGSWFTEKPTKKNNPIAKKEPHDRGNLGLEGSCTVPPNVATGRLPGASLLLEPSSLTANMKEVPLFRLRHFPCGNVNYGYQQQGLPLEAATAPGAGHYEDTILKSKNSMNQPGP
Method: as §1, §2
as §3, with “After the reaction, 10 µL of kinase detection reagent was added to each well and reacted at 25°C for 30 minutes.” left out, “seconds. […]” for “seconds.”

ALK(L1196M) = target: T3, ALK(L1196M) (Homo sapiens, UniProt Q9UM73, L1196M); assay: as above; assay type: biochemical; details: final ATP 50 µM, read-out: Kinase half maximal inhibitory concentration IC50 ALK^L1196M
T3 construct: purchased Carna
T3 sequence (Q9UM73 19-1620 L1196M): as the sequence (Q9UM73 19-1620) above, with L1178M counted along it
Method: as §1, §2
as §3, with “After the reaction, 10 µL of kinase detection reagent was added to each well and reacted at 25°C for 30 minutes.” left out, “seconds. […]” for “seconds.”

ALK(G1202R/L1196M) [1] = target: T4, ALK(G1202R/L1196M) (Homo sapiens, UniProt Q9UM73, G1202R/L1196M); assay: as above; assay type: biochemical; details: final ATP 50 µM, read-out: Kinase half maximal inhibitory concentration IC50 ALK^G1202R/L1196M
T4 construct: purchased Carna
T4 sequence (Q9UM73 19-1620 L1196M/G1202R): as the sequence (Q9UM73 19-1620) above, with L1178M, G1184R counted along it
Method: as §1, §2, §3
ALK (G1202R/L1196M) kinase inhibition assay method: The preparation method for the working solution of the test compound was the same as for the ALK kinase. […] The subsequent steps were the same as for ALK kinase.
as §4

TRKB [2] = target: T5, TRKB (Homo sapiens, UniProt Q16620); assay: as above; assay type: biochemical; details: read-out: Kinase half maximal inhibitory concentration IC50 TRKB
T5 construct: purchased Carna
T5 sequence (Q16620 32-822): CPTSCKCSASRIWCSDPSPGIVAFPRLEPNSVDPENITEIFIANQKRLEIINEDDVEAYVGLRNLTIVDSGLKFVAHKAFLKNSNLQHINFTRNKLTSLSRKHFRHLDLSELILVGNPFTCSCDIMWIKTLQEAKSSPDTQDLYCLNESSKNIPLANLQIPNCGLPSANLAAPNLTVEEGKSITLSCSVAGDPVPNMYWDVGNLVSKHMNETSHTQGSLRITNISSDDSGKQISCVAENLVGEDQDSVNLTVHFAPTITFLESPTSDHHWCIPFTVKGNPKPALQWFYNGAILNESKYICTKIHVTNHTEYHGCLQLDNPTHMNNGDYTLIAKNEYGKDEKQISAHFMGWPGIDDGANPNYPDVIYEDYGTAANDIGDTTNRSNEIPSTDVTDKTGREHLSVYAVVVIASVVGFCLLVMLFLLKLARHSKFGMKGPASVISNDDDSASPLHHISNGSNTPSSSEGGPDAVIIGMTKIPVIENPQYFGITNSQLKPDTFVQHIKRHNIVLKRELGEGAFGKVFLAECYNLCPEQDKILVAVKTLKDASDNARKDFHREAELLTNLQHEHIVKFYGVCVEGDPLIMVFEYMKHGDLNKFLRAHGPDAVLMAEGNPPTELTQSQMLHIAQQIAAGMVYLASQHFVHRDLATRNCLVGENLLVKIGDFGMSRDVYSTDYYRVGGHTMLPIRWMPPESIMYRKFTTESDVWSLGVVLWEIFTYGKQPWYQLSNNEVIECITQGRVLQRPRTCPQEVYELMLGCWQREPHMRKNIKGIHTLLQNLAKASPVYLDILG
Method: as §1, §2, §3
TRKB kinase inhibition assay method: The preparation method for the working solution of the test compound was the same as for the ALK kinase. 2 µL of TRKB (0.5 ng per well) and 4 µL of a mixture of substrate and ATP (5 µM ATP, 0.5 µM SRC Substrate) were added to the microplate. […] The subsequent steps were the same as for ALK kinase.
as §4

TRKB [3] = target: T5, TRKB; assay: In vitro kinase inhibitory activity assay, Experimental method 2 (ADP-Glo); assay type: biochemical; details: Experimental method 2; ATP 5.0 µM, substrate PolyE4Y1; read-out: Kinase half maximal inhibitory concentration IC50 TRKB
Method: as §1
(§5) Experimental materials: ALK (G1202R/L1196M) Active and TRKB were purchased from Carna; IGF1 was purchased from GenScript; PolyE4Y1 was purchased from SIGMA; ADP-Glo™ Reagent was purchased from Promega; ATP was purchased from Promega; Kinase Detection Reagent was purchased from Promega; microplate reader ( PerkinElmer).
TRKB reaction concentration 4.47 nM, ATP concentration 5.0 µM, substrate PolyE4Y1 concentration 0.2 µg/µL. TRKB kinase buffer was 40 mM Tris-HCl (pH 7.5) + 20 mM magnesium chloride + 2.5 mM manganese chloride + 0.1mg/mL BSA+ 50 µM DTT.
(§6) ALK(G1202R/L1196M) and TRKB detection method: 2 µL of kinase and 1 µL of compound were added to a 384-well plate; 2 µL of substrate/ATP mixture was added and incubated at room temperature in the dark for 60 minutes; 5 µL of ADP-Glo™ reagent was added and incubated at room temperature for 40 minutes; 10 µL of kinase detection reagent was added and incubated at room temperature for 30 minutes; the plate was read on a microplate reader, and luminescence was recorded (integration time set to 0.5 seconds).
as §4

ALK(G1202R/L1196M) [4] = target: T4, ALK(G1202R/L1196M); assay: as above; assay type: biochemical; details: Experimental method 2; ATP 5.0 µM, substrate IGF1; read-out: Kinase half maximal inhibitory concentration IC50 ALK^G1202R/L1196M
Method: as §1, §5
Reaction system: ALK(G1202R/L1196M) reaction concentration 8.63 nM, ATP concentration 5.0 µM, substrate IGF1 concentration 0.2 µg/µL. ALK(G1202R/L1196M) kinase buffer was 40 mM Tris-HCl (pH 7.5) + 20 mM magnesium chloride + 0.1 mg/mL BSA + 50 µM DTT.
as §6, §4

Ba/F3-TEL-TRKB = assay: Anti-proliferative activity test on Ba/F3 cell lines (CellTiter-Glo); assay type: cell-based; details: Mus musculus, BaF3; 72 hours; read-out: Half maximal inhibitory concentration IC50 for cells Ba/F3-TEL-TRKB
Method: (§7) • (1) Cell culture: The cell lines were cultured in an incubator at 37°C with 5% CO2. Regular passaging was performed, and cells in the logarithmic growth phase were selected for plating; • (2) Preparation of compound storage plate: The test compounds were prepared into a 10 mM solution with DMSO (Stock Con.); The compounds were then prepared into a 1 mM solution with DMSO (Work Con.); 1 µL of the stock solution was mixed with 9 µL of DMSO to prepare a 10 µL work solution. • (3) Preparation of 1000× compound storage plate (tube): The compounds were 3-fold serially diluted from […] to the lowest concentration, for a total of 8 concentrations; • (4) Preparation of 20× compound working solution: 98 µL of cell culture medium was added to a flat-bottomed 96-well transparent drug plate. From the 1000× compound storage plate, 2 µL of the compound was pipetted into the cell culture medium in the 96-well transparent drug plate. In the solvent control, 2 µL of DMSO was added. After the compound or DMSO was added, the mixture was homogenized using a pipette. • (5) Cells were stained with trypan blue and viable cells were counted to ensure a cell viability of 90% or more. The cell concentration was adjusted to an appropriate concentration; • (6) 95 µL of cell suspension (2000 cells/well) was added to each well of the compound assay cell plate, and cell-free culture medium containing 0.1% DMSO was added to the Min control wells; • (7) Administration in the compound assay cell plate: 5 µL of 20× compound working solution was added to the cell culture plate, 5 µL of DMSO-cell culture medium mixture was added to the Max control wells, and the final concentration of DMSO was 0.1%; • (8) The culture plate was then incubated in an incubator at 37°C with 5% CO2 for 72 hours; • (9) The following operations were conducted in accordance with the instructions of the Promega CellTiter-Glo Luminescent Cell Viability Assay Kit (Promega-G7573): CellTiter-Glo buffer was thawed and brought to room temperature; CellTiter-Glo substrate was brought to room temperature; CellTiter-Glo buffer was added to a bottle of CellTiter-Glo substrate to dissolve the substrate, thereby preparing CellTiter-Glo working solution; The mixture was slowly vortexed and shaken to be fully dissolved; The cell culture plate was removed and allowed to equilibrate to room temperature for 10 minutes; 50 µL (equal to half the volume of cell culture medium in each well) of CellTiter-Glo working solution was added to each well; The culture plate was shaken on an orbital shaker for 2 minutes to induce cell lysis; The plate was then left at room temperature for 10 minutes to stabilize the luminescent signal; The luminescent signal was detected using a SpectraMax Paradigm plate reader; Cell viability assay was conducted using CellTiter-Glo luminescence method.
(§8) Data analysis: The corresponding […] value (RLU) for each well was obtained from SpectraMax Paradigm readings. […] The inhibition rates corresponding to compounds at different concentrations were calculated in Excel, and the inhibition rate curves were plotted using GraphPad Prism software to calculate relevant parameters, including the maximum and minimum inhibition rates of the cells and the IC50 value.

[5] = system: Ba/F3-EML4-ALK-G1202R/L1196M; assay: as above; assay type: cell-based
Method: as §7, §8

[6] = HMS CLint (liver) test, hepatocyte metabolic stability; assay type: in vitro ADME; details: 0.5 × 10^6 cells/mL, up to 90 minutes
Method: The metabolic stability of the compounds of the present disclosure was tested in human and mouse hepatocytes.
• (1) Test compound (10 mM); Control: 7-ethoxycoumarin (30 mM), 7-hydroxycoumarin (reference substance, 30 mM); • Mouse hepatocytes with cell viability of 73.8%, supplier Cat No.: BioreclamationIVTM005052; • Human hepatocytes with cell viability of 94.6%, supplier Cat No.: Bioreclamation IVTX008001. • (2) Buffer system: Thawing medium: Williams' medium E containing 5% fetal bovine serum, 30% Percoll solution, and other auxiliary materials.
Incubation medium: Williams' medium E (without phenol red) containing 2 mM L-glutamine and 25 mM 4-(2-hydroxyethyl)-1-piperazineethanesulfonic acid.
Stop solution: acetonitrile containing 200 ng/mL tolbutamide and labetalol as internal standard. […]
The residual rates of the test compound and the control compound were determined using the following formula: Residual rate (%) = (Peak area ratio of compound to internal standard at any time point)/(Peak area ratio of compound to internal standard at 0 minutes) × 100% [formula]
The elimination rate constant (k) of the test compound and the control compound in hepatocytes was calculated by plotting the logarithm of the residual rate against time. […]

T1 sequence (Q9UM73 19-1620 G1202R): as the sequence (Q9UM73 19-1620) above, with G1184R counted along it

Structure (SMILES) | IC50 (ALK(G1202R)) [nM] | IC50 (ROS1) [nM] | IC50 (ALK) [nM] | IC50 (ALK(L1196M)) [nM] | IC50 (ALK(G1202R/L1196M) [1]) [nM] | IC50 (TRKB [2]) [nM] | IC50 (TRKB [3]) [nM] | IC50 (ALK(G1202R/L1196M) [4]) [nM] | IC50 (Ba/F3-TEL-TRKB) [nM] | IC50 ([5]; Ba/F3 EML4-ALK-G1202R-L1196M, 72 hours, read-out: Half maximal inhibitory concentration IC50 for cells Ba/F3-EML4-ALK-G1202R/L1196 M) [nM] | selectivity: inhibition against ALK-mutant cells versus TRKB phenotypic cells ([5]; stronger inhibition of ALK-mutant cells, relatively weaker of TRKB phenotypic cells) | CLint scaled ([6]; Human hepatocytes) [mL/min/kg] | CLint scaled ([6]; Mouse hepatocytes) [mL/min/kg]
CON=C1NC(C)(C)COc2ccc(F)cc2CN2c3nc4c1cnn4cc3OC[C@H]2C(F)F [Compound 001] | 16.9 | 17.3 | 22.2 | 12.8 | 12.4 | 2.2 | – | – | – | – | – | – | –
CC#Cc1nn2cc3c4nc2c1C(=O)NC(C)(C)COc1ccc(F)cc1CN4[C@H](C(F)F)CO3 [Compound 018] | – | – | – | – | – | – | 4.9 | 0.7 | 6.9 | 1.1 | excellent selectivity | < 17.8 | 291
